According to paper PMC10135057, “Molecular Modification of Kex2 P1’ Site Enhances Expression and Druggability of Fungal Defensin” (Antibiotics, 2023):
Several values for one entry are separate records, joined by “and”; a condition that tells them apart may be missing. Identical values can stand only once.

Tests used:
[1] = system: S. aureus ATCC 43300; experiment: Stability in artificial intestinal fluid (MIC after treatment); format: in vitro ADME, Staphylococcus aureus; details: 10 min, MIC vs S. aureus ATCC 43300, triplicate
Description: (§1) The tolerance of FNZ to temperature and pH was evaluated. The stability of FNZ in simulated gastric fluid, artificial intestinal fluid and mouse serum was carried out as previously described. […] All assays were conducted in triplicate.

[2] = system: S. aureus ATCC 43300; experiment: Salts stability (MIC after incubation with Na+ or Mg2+); format: cell-based, Staphylococcus aureus; details: for MIC: read-out: MIC after treatment
[3] = system: S. aureus ATCC 43300; experiment: pH stability (MIC after pH treatment); format: physicochemical, Staphylococcus aureus; details: MIC vs S. aureus ATCC 43300, triplicate
Description: as §1

[4] = system: S. aureus ATCC 43300; experiment: Stability in simulated gastric fluid (MIC after treatment); format: in vitro ADME, Staphylococcus aureus; details: 1 h, MIC vs S. aureus ATCC 43300, triplicate
Description: as §1

[5] = system: S. aureus ATCC 43300; experiment: Stability in mouse serum (MIC after treatment); format: in vitro ADME, Staphylococcus aureus; details: mouse serum (25%), 1–4 h; MIC vs S. aureus ATCC 43300; triplicate
Description: as §1

[6] = system: S. aureus ATCC 43300; experiment: Thermal stability (MIC after heat treatment); format: physicochemical, Staphylococcus aureus; details: MIC vs S. aureus ATCC 43300, triplicate
Description: as §1

[7] = system: S. aureus ATCC 43300; experiment: Bactericidal kinetics (time-killing curves); format: cell-based, Staphylococcus aureus; details: 2× MIC, within 2 h; S. aureus ATCC 43300, 10^6 CFU/mL
Description: The S. aureus ATCC 43300 in logarithmic growth stage was diluted to a final concentration of 10^6 CFU/mL. […] Samples were taken at 0, 0.5, 1, 2, 4, 6, 8, 10, 20, and 24 h, serially diluted, and visible colonies were counted on MHA plates.

[8] = system: S. epidermidis ATCC 12228; experiment: microbe, parasite or virus in culture; format: cell-based, Staphylococcus epidermidis; details: Staphylococcus epidermidis, ATCC12228
Description: (§2) The minimal inhibitory concentrations (MICs) assay was performed according to the CLSI procedures with the final peptide concentrations of 256, 128, 64, 32, 16, 8, 4, 2, 1, and 0.5 μg/mL, respectively. All tests were conducted in triplicate.

[9] = system: S. aureus ATCC 43300; experiment: Post-antibiotic effect (PAE); format: cell-based, Staphylococcus aureus; details: 2× MIC, 2 h exposure, 10^8 CFU/mL S. aureus ATCC 43300, 1000-fold dilution
Excerpt: After the exposed time, the bacteria suspension was reconstructed by dilution to 1000 times with MHB medium to remove the influence of peptides and antibiotics. Samples were taken every hour, and then coated on MHA plate after gradient dilution. The calculation formula was from previous studies.

[10] = system: Staphylococcus aureus ATCC 43300; experiment: microbe, parasite or virus in culture; format: cell-based; details: Staphylococcus aureus, ATCC43300
Description: as §2

[11] = system: Escherichia coli ATCC 25922; experiment: microbe, parasite or virus in culture; format: cell-based; details: Escherichia coli, ATCC25922
Description: as §2

[12] = system: Salmonella enterica ATCC 13076; experiment: Minimal inhibitory concentration (MIC); format: cell-based; details: ATCC13076, CLSI procedure, triplicate
Description: as §2

[13] = system: Pseudomonas aeruginosa CICC 20625; experiment: Minimal inhibitory concentration (MIC); format: cell-based; details: CICC20625, CLSI procedure, triplicate
Description: as §2

[14] = system: S. aureus E48; experiment: microbe, parasite or virus in culture; format: cell-based, Staphylococcus aureus; details: Staphylococcus aureus, E48
Description: as §2

[15] = system: S. aureus ATCC 25923; experiment: microbe, parasite or virus in culture; format: cell-based, Staphylococcus aureus; details: Staphylococcus aureus, ATCC25923
Description: as §2

[16] = system: S. aureus CVCC 546; experiment: microbe, parasite or virus in culture; format: cell-based, Staphylococcus aureus; details: Staphylococcus aureus, CVCC546
Description: as §2

[17] = system: S. aureus ATCC 43300; experiment: microbe, parasite or virus in culture; format: cell-based, Staphylococcus aureus
Description: The effects of combination were evaluated by calculating the FICI. FICI ≤ 0.5 was defined as synergy, 0.5 < FICI ≤ 1 was defined as additivity, 1 < FICI ≤ 4 was defined as indifference, and FICI > 4 was defined as antagonism.

[18] = 50 mM Mg2+, 37 °C, 1 h, MIC vs S. aureus ATCC 43300, triplicate
[19] = 100 mM Mg2+, 37 °C, 1 h, MIC vs S. aureus ATCC 43300, triplicate
[20] = 100 mM Na+, 37 °C, 1 h, MIC vs S. aureus ATCC 43300, triplicate
[21] = 150 mM Mg2+, 37 °C, 1 h, MIC vs S. aureus ATCC 43300, triplicate
[22] = 150 mM Na+, 37 °C, 1 h, MIC vs S. aureus ATCC 43300, triplicate
[23] = 300 mM Mg2+, 37 °C, 1 h, MIC vs S. aureus ATCC 43300, triplicate
[24] = 300 mM Na+, 37 °C, 1 h, MIC vs S. aureus ATCC 43300, triplicate
[25] = 500 mM Mg2+, 37 °C, 1 h, MIC vs S. aureus ATCC 43300, triplicate
[26] = 500 mM Na+, 37 °C, 1 h, MIC vs S. aureus ATCC 43300, triplicate

CN[C@H](CC(C)C)C(=O)N[C@H]1C(=O)N[C@@H](CC(N)=O)C(=O)N[C@H]2C(=O)N[C@H]3C(=O)N[C@H](C(=O)N[C@H](C(=O)O)c4cc(O)cc(O)c4-c4cc3ccc4O)[C@H](O)c3ccc(c(Cl)c3)Oc3cc2cc(c3O[C@@H]2O[C@H](CO)[C@@H](O)[C@H](O)[C@H]2O[C@H]2C[C@](C)(N)[C@H](O)[C@H](C)O2)Oc2ccc(cc2Cl)[C@H]1O [Vancomycin, vancomycin] was tested, and the MIC after treatment [1] was 1 μg/mL and 0.67 μM, the MIC after treatment [2, 18] was 1 µg/mL and the MIC [2, 18] was 0.67 µM. For the same molecule, the MIC after treatment [2, 19] was 1 µg/mL, the MIC [2, 19] was 0.67 µM and the MIC after treatment [2, 20] was 1 µg/mL. It also gave an MIC [2, 20] of 0.67 µM, an MIC after treatment [2, 21] of 1 µg/mL and an MIC [2, 21] of 0.67 µM. For the same molecule, the MIC after treatment [2, 22] was 1 µg/mL, the MIC [2, 22] was 0.67 µM and the MIC after treatment [2, 23] was 1 µg/mL. For the same molecule, the MIC [2, 23] was 0.67 µM, the MIC after treatment [2, 24] was 1 µg/mL and the MIC [2, 24] was 0.67 µM. It also gave an MIC after treatment [2, 25] of 1 µg/mL, an MIC [2, 25] of 0.67 µM and an MIC after treatment [2, 26] of 1 µg/mL. The MIC [2, 26] was 0.67 µM, the MIC ([2]; Staphylococcus aureus, ATCC43300, 1 h) was 1 µg/mL and 0.67 µM and the MIC after treatment ([3]; pH 2) was 1 μg/mL and 0.67 μM. For the same molecule, the MIC after treatment ([3]; pH 4) was 1 μg/mL and 0.67 μM, the MIC after treatment ([3]; pH 6) was 1 μg/mL and 0.67 μM and the MIC after treatment ([3]; pH 8) was 1 μg/mL and 0.67 μM. The MIC after treatment ([3]; pH 10) was 1 μg/mL and 0.67 μM, the MIC after treatment [4] was 1 μg/mL and 0.67 μM and the MIC after treatment [5] was 1 μg/mL and 0.67 μM. The MIC after treatment ([6]; 20 °C for 1 h) was 1 μg/mL and 0.67 μM, the MIC after treatment ([6]; 40 °C for 1 h) was 1 μg/mL and 0.67 μM and the MIC after treatment ([6]; 60 °C for 1 h) was 1 μg/mL and 0.67 μM. The MIC after treatment ([6]; 80 °C for 1 h) was 1 μg/mL and 0.67 μM, the MIC after treatment ([6]; 100 °C for 1 h) was 1 μg/mL and 0.67 μM and the “Decrease of bacterial counts (log10 CFU/mL)” value [7] was 0.216 log10 CFU/mL. For the same molecule, the MIC [8] was 1 µg/mL and 0.67 µM, the PAE [9] was 1.3 h and the MIC [10] was 1 µg/mL and 0.67 µM. The MIC [11] was 128 µg/mL and 86 µM, the MIC [12] was > 128 µg/mL and > 86 µM and the MIC [13] was > 128 µg/mL and > 86 µM. The MIC [14] was 1 µg/mL and 0.67 µM, the MIC [15] was 4 µg/mL and 2.69 µM and the MIC [16] was 1 µg/mL and 0.67 µM. For the same molecule, the MIC ([17]; Staphylococcus aureus, ATCC43300, 16 h, read-out: MICa (MIC of drug alone)) was 1 µg/mL, the “Combination effect with FNZ (in words)” value ([17]; checkerboard, S. aureus ATCC 43300) was “synergistic effect” and the FIC ([17]; combination FNZ + Van, S. aureus ATCC 43300) was 0.125. The “MICc (MIC of drug used in combination)” value ([17]; combination FNZ + Van, S. aureus ATCC 43300, checkerboard, 37 °C, 16 h) was 0.125 µg/mL and the “FICI (fractional inhibitory concentration index)” value ([17]; combination of FNZ with the named antibiotic, S. aureus ATCC 43300, ≤0.5 synergy, 0.5-1 additivity, 1-4 indifference, >4 antagonism) was 0.25 and < 0.5.
